# Test: TEAC assay (trolox equivalent antioxidant activity assay)
# Conditions: absorption at 734 nm measured after 6 minutes; relative to trolox = 1.0
# Method: • a) The basis for the determination of the antioxidative efficacy is the so-called DPPH test, as described in Bünger et al. [Buenger, J., Ackermann, H., Jentzsch, A., Mehling, A., Pfizner, I., Reiffen, K.-A., Schroeder, K.-R., and Wollenweber U., An interlaboratory comparison of methods used to assess antioxidant potentials, Int. J. Cosm. Sci., 28 (2006) 1-12]. The anti-oxidative efficacy of [(7,8-dihydroxy-4-oxo-4H-chromen-3-yl)hydroxy-methyl]phosphonic acid is determined in the DPPH test. […] J. Cosm. Sci., 28 (2006), 1-12].
# ABTS [2,2′-azinobis(3-ethylbenzothiazoline-6-sulfonic acid)] reacts with potassium peroxodisulfate by generating a stable free-radical cation which absorbs at 734 nm. The antioxidant measured reduces the free-radical cation and thus causes a weakening of the absorption capacity at 734 nm. The absorption is measured after a fixed time span of 6 minutes. The anti-oxidative potential of the substance measured is indicated as activity compared with trolox. The substance measured may be present dissolved in water or ethanol during the measurement.
row,Compound,"antioxidative potential, activity compared with trolox (TEAC)"
1,"O=c1c(C(O)P(=O)(O)O)coc2c(O)c(O)ccc12 (centres unmarked) [Example 1, [(7,8-dihydroxy-4-oxo-4H-chromen-3-yl)-hydroxymethyl]phosphonic acid]",0.93
2,"Cc1c(C)c2c(c(C)c1O)CCC(C)(C(=O)O)O2 (centres unmarked) [trolox, reference compound]",1.0

# From patent US8052963B2, “[(4-oxo-4H-chromen-3-yl)hydroxymethyl]- or [(4-oxo-4H-chromen-3-yl)methyl]phosphonic acid derivatives” (Merck Patent Gesellschaft mit beschrankter Haftung, priority 2006, dated 2011)
